# Assay results published in patent US12077503B2, “Substituted cyclic amides and their use as herbicides” (FMC CORPORATION, priority 2015, dated 2024).
# How the values were obtained:
# Assay type in all cases: in vivo
# [1] = test system: sedge, umbrella (small-flower umbrella sedge, Cyperus difformis); assay: Test B flooded paddy test; conditions: Flood, 250 g ai/ha; 0 to 100 scale where 0 is no effect and 100 is complete control; 13 to 15 d
# Summary of the method: (§1)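 Plants at 2-leaf stage flooded to 3 cm above soil, with compounds applied directly to paddy water and that depth maintained. Plants kept in greenhouse 13–15 d. Visual rating versus controls on a 0 (no effect) to 100 (complete control) scale.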
# [2] = test system: ducksalad (Heteranthera limosa); assay: Test B flooded paddy test; conditions: Flood, 250 g ai/ha; 0 to 100 scale where 0 is no effect and 100 is complete control; 13 to 15 d
# Summary of the method: as §1
# [3] = test system: barnyardgrass (Echinochloa crus-galli); assay: Test B flooded paddy test; conditions: Flood, 250 g ai/ha; 0 to 100 scale where 0 is no effect and 100 is complete control; 13 to 15 d
# Summary of the method: as §1
# [4] = test system: rice (Oryra sativa); assay: Test B flooded paddy test; conditions: Flood, 250 g ai/ha; 0 to 100 scale where 0 is no effect and 100 is complete control; 13 to 15 d
# Summary of the method: as §1
# [5] = test system: giant foxtail (Setaria faberii); assay: Test A postemergence; conditions: postemergence, 0 to 100 scale (0 no effect, 100 complete control)
# Summary of the method: (§2)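 Compounds were formulated in a non-phytotoxic solvent mixture with surfactant and applied as a preemergence directed soil spray after seeding, or sprayed postemergence over plants 2 to 10 cm tall at the one- to two-leaf stage. Evaluation after about 10 d compared treated with untreated controls, using a scale from 0 (no effect) to 100 (complete control).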
# [6] = test system: Kochia (Kochia scoparia); assay: Test A postemergence; conditions: postemergence, 0 to 100 scale (0 no effect, 100 complete control)
# Summary of the method: as §2
# [7] = test system: ragweed (common ragweed, Ambrosia elatior); assay: Test A postemergence; conditions: postemergence, 0 to 100 scale (0 no effect, 100 complete control)
# Summary of the method: as §2
# [8] = test system: corn (Zea mays); assay: Test A postemergence; conditions: postemergence, 0 to 100 scale (0 no effect, 100 complete control)
# Summary of the method: as §2
# [9] = test system: Galium (catchweed bedstraw, Galium aparine); assay: Test A postemergence; conditions: postemergence, 0 to 100 scale (0 no effect, 100 complete control)
# Summary of the method: as §2
# [10] = test system: blackgrass (Alopecurus myosuroides); assay: Test A postemergence; conditions: postemergence, 0 to 100 scale (0 no effect, 100 complete control)
# Summary of the method: as §2
# [11] = test system: wheat (Triticum aestivum); assay: Test A postemergence; conditions: postemergence, 0 to 100 scale (0 no effect, 100 complete control)
# Summary of the method: as §2
# [12] = test system: ryegrass, Italian (Italian ryegrass, Lolium multiflorum); assay: Test A postemergence; conditions: postemergence, 0 to 100 scale (0 no effect, 100 complete control)
# Summary of the method: as §2
# [13] = test system: barnyardgrass (Echinochloa crus-galli); assay: Test A postemergence; conditions: postemergence, 0 to 100 scale (0 no effect, 100 complete control)
# Summary of the method: as §2
# [14] = test system: pigweed (Amaranthus retroflexus); assay: Test A postemergence; conditions: postemergence, 0 to 100 scale (0 no effect, 100 complete control)
# Summary of the method: as §2
# [15] = test system: giant foxtail (Setaria faberii); assay: Test A preemergence
# Summary of the method: as §2
# [16] = test system: Kochia (Kochia scoparia); assay: Test A preemergence
# Summary of the method: as §2
# [17] = test system: ragweed (common ragweed, Ambrosia elatior); assay: Test A preemergence
# Summary of the method: as §2
# [18] = test system: ryegrass, Italian (Italian ryegrass, Lolium multiflorum); assay: Test A preemergence
# Summary of the method: as §2
# [19] = test system: barnyardgrass (Echinochloa crus-galli); assay: Test A preemergence
# Summary of the method: as §2
# [20] = test system: pigweed (Amaranthus retroflexus); assay: Test A preemergence
# [21] = 125 g ai/ha, visual rating after approx. 10 d
# [22] = 500 g ai/ha, visual injury, approx. 10 d
# [23] = 125 g ai/ha, Preemergence, visual injury after approximately 10 d, 0 to 100 scale where 0 is no effect and 100 is complete control
# [24] = 500 g ai/ha, preemergence, 0 to 100 scale, 0 = no effect, 100 = complete control
smiles,measurement,setting,value
CC(C)Oc1cccc(C2CN(C)C(=O)C2C(=O)Nc2ccccc2S(C)(=O)=O)c1 (stereo not drawn) [Compound 653],"Plant response rating, Sedge, Umbrella",[1],0
same,"Plant response rating, Ducksalad",[2],40
same,"Plant response rating, Barnyardgrass",[3],30
same,"Plant response rating, Rice",[4],0
same,"Plant response rating, Foxtail, Giant",[5]; [21],60
same,"Plant response rating, Foxtail, Giant",[5]; [22],90
same,"Plant response rating, Kochia",[6]; [21],0
same,"Plant response rating, Kochia",[6]; [22],0
same,"Plant response rating, Ragweed",[7]; [21],0
same,"Plant response rating, Ragweed",[7]; [22],0
same,"Plant response rating, Corn",[8]; [21],0
same,"Plant response rating, Corn",[8]; [22],30
same,"Plant response rating, Galium",[9]; [21],40
same,"Plant response rating, Galium",[9]; [22],50
same,"Plant response rating, Blackgrass",[10]; [21],50
same,"Plant response rating, Blackgrass",[10]; [22],70
same,"Plant response rating, Wheat",[11]; [21],30
same,"Plant response rating, Wheat",[11]; [22],60
same,"Plant response rating, Ryegrass, Italian",[12]; [21],40
same,"Plant response rating, Ryegrass, Italian",[12]; [22],60
same,"Plant response rating, Barnyardgrass",[13]; [21],60
same,"Plant response rating, Barnyardgrass",[13]; [22],90
same,"Plant response rating, Pigweed",[14]; [21],0
same,"Plant response rating, Pigweed",[14]; [22],0
same,"Plant response rating, Foxtail, Giant",[15]; [23],90
same,"Plant response rating, Foxtail, Giant",[15]; [24],100
same,"Plant response rating, Kochia",[16]; [23],0
same,"Plant response rating, Kochia",[16]; [24],70
same,"Plant response rating, Ragweed",[17]; [23],50
same,"Plant response rating, Ragweed",[17]; [24],80
same,"Plant response rating, Ryegrass, Italian",[18]; [23],70
same,"Plant response rating, Ryegrass, Italian",[18]; [24],70
same,"Plant response rating, Barnyardgrass",[19]; [23],90
same,"Plant response rating, Barnyardgrass",[19]; [24],90
same,"Plant response rating, Pigweed",[20]; [23],70
same,"Plant response rating, Pigweed",[20]; [24],90
